We go through 13 compounds from patent publication US4496551A (priority 1983, dated 1985).

Common to all, as to assay type: in vivo
Assay [1] relates to Puccinia recondita var. tritici. Put plainly: wheat leaf rust control on wheat seedlings. The settings on record: 100 ppm, sprayed day before inoculation. The method, then: (§1) Compounds of this invention were dissolved in acetone in an amount equal to 6% of the final volume and then suspended at a concentration of 100 ppm in purified water containing 250 ppm of the surfactant TREM 014 (polyhydric alcohol esters). This suspension was sprayed to the point of run-off on wheat seedlings. The following day, the plants were inoculated with a spore suspension of Puccinia recondita var. tritici, causal agent of wheat leaf rust, and incubated in a saturated humidity chamber at 20° for 24 hours and then in a growth room for an additional 7 days, when disease ratings were made. Treated plants from successful treatments had few or no rust pustules while the untreated plants had numerous rust pustules on each leaf.

For another assay, the system named is Erysiphe cichoracearum. Put plainly: cucumber powdery mildew control on cucumber seedlings. The settings on record: 7 days; for pest or weed control at 100 ppm: Golovinomyces cichoracearum, 168 h. The procedure:
Compounds of the previous examples were again dissolved in acetone in an amount equal to 6% of the final volume and then suspended at a concentration of 100 ppm in purified water containing 250 ppm of the surfactant TREM 014 (polyhydric alcohol esters). This suspension was sprayed to the point of run-off on cucumber seedlings. The following day, the plants were inoculated with a spore suspension of the fungus Erysiphe cichoracearum, causal agent of cucumber powdery mildew, and incubated in a growth room for 7 days. Disease ratings were then made. Treated plants from successful treatments had little or no powdery mildew in contrast to untreated plants which were covered with powdery mildew.

A further assay has as its system Venturia inaequalis. As to the kind of experiment: apple scab control on apple seedlings. The settings on record: 100 ppm; for pest or weed control at 100 ppm: Venturia inaequalis. The procedure: as §1, with “apple” for “wheat”, “the fungus Venturia inaequalis,” for “Puccinia recondita var. tritici,”, “apple scab,” for “wheat leaf rust,”, “10-12 days.” for “7 days, when disease ratings were made.”, “apple scab lesions when compared to” for “rust pustules while the”, “which were covered with scab lesions.” for “had numerous rust pustules on each leaf.”

In the next assay the test system is Helminthosporium maydis. As to the kind of experiment: southern corn leaf blight control on corn seedlings. Conditions: for pest or weed control at 100 ppm: Bipolaris maydis, 168 h. The procedure: Compounds of the previous example were again dissolved in acetone in an amount equal to 6% of the final volume and then suspended at a concentration of 100 ppm in purified water containing 250 ppm of the surfactant TREM 014 (polyhydric alcohol esters). This suspension was sprayed to the point of run-off on corn seedlings. The following day, the plants were inoculated with a spore suspension of Helminthosporium maydis, causal agent of southern corn leaf blight, and incubated in a saturated humidity chamber at 20° for 24 hours and then in a growth room for an additional 7 days, when disease ratings were made. Treated plants from successful treatments had few lesions while the untreated plants had numerous lesions on each leaf.

For a further assay, the system named is Cercospora arachidicola. Put plainly: peanut early leafspot control on peanut seedlings. The settings on record: for pest or weed control at 100 ppm: Mycosphaerella arachidis, 336 h. The method, then: Compounds of the previous examples were again dissolved in acetone in an amount equal to 6% of the final volume and then suspended at a concentration of 100 ppm in purified water containing 250 ppm of the surfactant TREM 014 (polyhydric alcohol esters). This suspension was sprayed to the point of run-off on peanut seedlings. The following day, the plants were inoculated with a spore suspension of Cercospora arachidicola, causal agent of peanut early leafspot, and incubated in a saturated humidity chamber at 27° for 24 hours and then in a growth room for an additional 14 days, when disease ratings were made. Treated plants from successful treatments had few or no leafspots while the untreated plants had numerous leafspots on each leaf.

A further assay concerns Rhizoctonia solani. As to the kind of experiment: rice sheath blight control on rice seedlings. The settings on record: 7 days; for pest or weed control at 100 ppm: Rhizoctonia solani, 168 h. The method, then: Several compounds of the previous examples were again dissolved in acetone in an amount equal to 6% of the final volume and then suspended at a concentration of 100 ppm in purified water containing 250 ppm of the surfactant TREM 014 (polyhydric alcohol esters). This suspension was sprayed to the point of run-off on rice seedlings. The following day, the plants were inoculated with a mixture of bran and the mycelium of Rhizoctonia solani, causal agent of sheath blight of rice, and incubated in a growth room for 7 days. Disease ratings were then made. Treated plants from successful treatments had little sheath blight in contrast to untreated plants which were covered with sheath blight.

In another assay the test system is Pyricularia oryzae. As to the kind of experiment: whole plant or invertebrate. Conditions: 168 h, read-out: % Control of Rice Blast.
The next assay relates to Phytophthora infestans. Put plainly: whole plant or invertebrate. Conditions: for pest or weed control at 100 ppm: Phytophthora infestans, in Solanum lycopersicum, 168 h, read-out: % Control of Tomato Late Blight.

Regarding `C[Si](Cn1ccnc1)(c1ccccc1Cl)c1ccccc1Cl` [[bis(2-Chlorophenyl)](1H-imidazol-1-ylmethyl)methylsilane], the pest or weed control at 100 ppm turned out to be 0% in assay [1]; 100% in the assay with Erysiphe cichoracearum; 60% in the assay on Venturia inaequalis; 90% in the assay with Helminthosporium maydis; 100% in the assay with Cercospora arachidicola; 40% in the assay on Rhizoctonia solani. Further, the pest or weed control at 100 ppm in the assay on Pyricularia oryzae worked out at 90%; in the assay with Phytophthora infestans, 60%.
Turning to `C[Si](C)(Cn1ccnc1)c1ccc(Br)cc1` [(4-Bromophenyl)(1H-imidazol-1-ylmethyl)dimethylsilane], the pest or weed control at 100 ppm is 0% in assay [1]; 100% in the assay with Erysiphe cichoracearum; 0% with Venturia inaequalis; 0% in the assay with Helminthosporium maydis; 0% with Cercospora arachidicola; 0% in the assay with Rhizoctonia solani. In addition, the pest or weed control at 100 ppm in the assay with Pyricularia oryzae turned out to be 0%; in the assay with Phytophthora infestans, 30%.
For the compound `O[Si](Cn1ccnc1)(c1ccc(F)cc1)c1ccc(F)cc1` [bis(4-Fluorophenyl)hydroxy(1H-imidazol-1-ylmethyl)silane], the pest or weed control at 100 ppm in assay [1] was 100%; in the assay on Erysiphe cichoracearum, 100%; with Venturia inaequalis, 0%; in the assay with Helminthosporium maydis, 0%; in the assay on Cercospora arachidicola, 50%; in the assay with Rhizoctonia solani, 90%. Further, the pest or weed control at 100 ppm in the assay on Pyricularia oryzae came out at 60%; in the assay with Phytophthora infestans it was 0%.
With `C[Si](Cn1ccnc1)(c1ccc(Br)cc1)c1ccc(Br)cc1` [[bis(4-Bromophenyl)](1H-imidazol-1-ylmethyl)methylsilane], the pest or weed control at 100 ppm amounted to 0% in assay [1]; 100% in the assay on Erysiphe cichoracearum; 50% in the assay on Venturia inaequalis; 0% in the assay on Helminthosporium maydis; 50% in the assay on Cercospora arachidicola; 0% in the assay with Rhizoctonia solani. Also, the pest or weed control at 100 ppm in the assay on Pyricularia oryzae was 80%; in the assay with Phytophthora infestans it was 0%.
Turning to `CSc1ccc([Si](C)(C)Cn2ccnc2)cc1` [Dimethyl(1H-imidazol-1-ylmethyl)(4-methylthiophenyl)silane], the pest or weed control at 100 ppm in assay [1] is 0%; with Erysiphe cichoracearum, 100%; in the assay with Venturia inaequalis, 0%; with Helminthosporium maydis, 0%; with Cercospora arachidicola, 0%; with Rhizoctonia solani, 0%. Moreover, the pest or weed control at 100 ppm in the assay on Pyricularia oryzae and in the assay with Phytophthora infestans was 0% each time.
Take `C[Si](Cn1ccnc1)(c1ccccc1)c1ccccc1Cl` (stereo not drawn) [(2-Chlorophenyl)(1H-imidazol-1-ylmethyl)methyl(phenyl)silane]: the pest or weed control at 100 ppm in assay [1] worked out at 0%; in the assay with Erysiphe cichoracearum, 100%; in the assay on Venturia inaequalis, 100%; with Helminthosporium maydis, 0%; in the assay with Cercospora arachidicola, 100%; in the assay on Rhizoctonia solani, 0%. Moreover, the pest or weed control at 100 ppm in the assay on Pyricularia oryzae and in the assay on Phytophthora infestans was 0% each time.
As to `COc1cccc(OC)c1[Si](C)(C)Cn1ccnc1` [(2,6-Dimethoxyphenyl)dimethyl(1H-imidazol-1-ylmethyl)silane], the pest or weed control at 100 ppm in assay [1] turned out to be 0%; with Erysiphe cichoracearum it was 0%; in the assay on Venturia inaequalis, 0%; with Helminthosporium maydis, 50%; with Cercospora arachidicola, 0%; in the assay with Rhizoctonia solani, 0%. For the same compound, the pest or weed control at 100 ppm stood at 0% with Pyricularia oryzae and 50% with Phytophthora infestans.
Consider `C[Si](C)(Cn1ccnc1)c1cccc(-c2ccccc2)c1` [(1,1'-Biphenyl-3-yl)dimethyl(1H-imidazol-1-ylmethyl)silane], for which the pest or weed control at 100 ppm in assay [1] came out at 90%; in the assay with Erysiphe cichoracearum it was 0%; in the assay with Venturia inaequalis, 90%; in the assay with Helminthosporium maydis it was 90%; in the assay on Cercospora arachidicola, 80%; in the assay with Rhizoctonia solani, 90%. The pest or weed control at 100 ppm in the assay on Pyricularia oryzae is 80%; with Phytophthora infestans, 0%.
In the case of `C[Si](Cn1ccnc1)(c1ccc(Cl)cc1)c1ccccc1Cl` (stereo not drawn) [(2-Chlorophenyl)(4-chlorophenyl)(1H-imidazol-1-ylmethyl)methylsilane], the pest or weed control at 100 ppm in assay [1] is 100%; with Erysiphe cichoracearum, 100%; in the assay on Venturia inaequalis, 80%; in the assay with Helminthosporium maydis it was 0%; in the assay on Cercospora arachidicola, 80%; in the assay with Rhizoctonia solani it was 0%. The pest or weed control at 100 ppm in the assay on Phytophthora infestans is 0%.
With `CC(C)O[Si](Cn1ccnc1)(OC(C)C)c1ccccc1` [(1H-Imidazol-1-ylmethyl)phenylbis(2-propoxy)silane], the pest or weed control at 100 ppm in assay [1] is 0%; in the assay on Erysiphe cichoracearum, 0%; in the assay with Venturia inaequalis, 70%; in the assay with Helminthosporium maydis, 0%; with Cercospora arachidicola it was 0%; in the assay on Rhizoctonia solani, 0%. For the same compound, the pest or weed control at 100 ppm in the assay with Phytophthora infestans is 0%.
With `C[Si](Cn1ccnc1)(c1ccc(F)cc1)c1ccc(-c2ccccc2)cc1` (stereo not drawn) [(1,1'-Biphenyl-4-yl)(4-fluorophenyl)(1H-imidazol-1-ylmethyl)methylsilane], the pest or weed control at 100 ppm came to 80% in assay [1]; 100% with Erysiphe cichoracearum; 50% in the assay with Venturia inaequalis; 70% in the assay with Helminthosporium maydis; 100% with Cercospora arachidicola; 0% with Rhizoctonia solani. Besides, the pest or weed control at 100 ppm with Phytophthora infestans came out at 0%.
For `CC(n1ccnc1)[Si](C)(c1ccc(F)cc1)c1ccc(F)cc1` (stereo not drawn) [bis(4-Fluorophenyl)methyl[1-(1H-imidazol-1-yl)ethyl]silane], the pest or weed control at 100 ppm was 0% in assay [1]; 100% in the assay with Erysiphe cichoracearum; 100% in the assay on Venturia inaequalis; 0% with Cercospora arachidicola; 90% with Rhizoctonia solani; 0% in the assay with Pyricularia oryzae. For the same compound, the pest or weed control at 100 ppm in the assay with Phytophthora infestans amounted to 0%.
Take `C[Si](C)(Cn1ccnc1)c1ccc(-c2ccccc2)cc1.[Cl][Cu]` [1:1 complex of (1,1'-Biphenyl-4-yl)dimethyl(1H-imidazol-1-ylmethyl)silane and Cuprous Chloride]: in assay [1], the “% Control Wheat Leaf Rust” value was 100%. The “% Control Cucumber Powdery Mildew” value in the assay on Erysiphe cichoracearum (100 ppm) is 100%. Moreover, the “% Control Apple Scab” value in the assay with Venturia inaequalis was determined as 100%. Besides, the “% Control of Southern Corn Leaf Blight” value with Helminthosporium maydis (100 ppm) was 0%. For the same compound, the “% Control Peanut Early Leafspot” value with Cercospora arachidicola (100 ppm) is recorded as 100%. Also, the “% Control of Rice Sheath Blight” value in the assay on Rhizoctonia solani (100 ppm) was determined as 50%. Also, in the assay with Phytophthora infestans (100 ppm), the “% Control of Tomato Late Blight” value was determined as 0%.
